The values that follow come from paper PMC7838546, “A Thermostable, Modified Cathelicidin-Derived Peptide With Enhanced Membrane-Active Activity Against Salmonella enterica serovar Typhimurium” (Frontiers in Microbiology, 2021).

Holding throughout (type): cell-based, Salmonella enterica serovar 4,5,12:i:-
For assay [1], the system named is S. enterica serovar 4,5,12:i:- H2-038 (foodborne isolate). Particulars: H2-038, pork kidney, resistant Amp, T; for MIC: broth microdilution, 37°C, 24 h. The procedure:
(§1) Salmonella enterica serovar Typhimurium ATCC 13311, 24 drug-resistant foodborne and eleven drug-resistant human borne S. enterica serovar Typhimurium and 4,5,12:i:- isolates (Table 1) were used as test microorganisms. They were previously isolated for molecular characterization in 2014 and kindly provided by Dr. Soraya Chaturongakul (Mahidol University, Thailand) ([Huoy et al., 2014]). All bacteria were cultured in Tryptic Soy Broth (TSB) and incubated at 37°C for 18 h. Mueller Hinton Broth (MHB) was then used to wash and rinse the bacteria. The bacterial suspensions were then diluted to obtain concentrations of 10^7 CFU/ml for inoculations.
(§2) A modified version of the National Committee for Clinical Laboratory Standards (NCCLS) broth microdilution method ([Steinberg et al., 1997]) was used to determine the minimum inhibitory concentrations (MICs) of peptide and compared to that of nisin. Fifty microliters of two-fold serial dilutions of each peptide [0.98–250 μg/ml in 0.01% (v/v) acetic acid and 0.2% (w/v) bovine serum albumin (BSA, Sigma-Aldrich, MO, United States)], were incubated with 50 μl of bacterial suspensions (approximately 10^7 CFU/ml) at 37°C for 24 h in a shaking incubator. MICs were taken as the lowest concentration of peptide at which growth was inhibited as observed by visual inspection. Bacterial cultures without peptides and uncultured broth were used as positive and negative controls, respectively. Minimal bactericidal concentrations (MBCs) were determined using a colony count assay ([Clinical Laboratory Standards Institute [CLSI], 2015]). Fifty microliters of samples from each non-turbid well in the MIC determination experiment was plated on Mueller Hinton Agar (MHA) and colonies were observed after overnight incubation at 37°C. MBCs were designated as the least concentration showing no colony growth on the plate. All of experiments were performed in triplicate.
(Dilution methods test growth across graded concentrations, often in twofold steps.)

Assay [2] relates to S. enterica serovar 4,5,12:i:- H2-046 (foodborne isolate). Briefly: MIC/MBC, broth microdilution and colony count. The conditions noted are these: H2-046, pork heart, resistant Amp, T, intermediate Cp, broth microdilution, 37°C, 24 h. The protocol:
as §1, §2

For assay [3], the system named is S. enterica serovar 4,5,12:i:- H2-090 (foodborne isolate). The experiment in a line: MIC/MBC, broth microdilution and colony count. The conditions noted are these: H2-090, pork intestine, resistant Amp, T, broth microdilution, 37°C, 24 h. The protocol:
as §1, §2

Assay [4] relates to S. enterica serovar 4,5,12:i:- H2-067 (foodborne isolate). The experiment in a line: MIC/MBC, broth microdilution and colony count. The conditions noted are these: H2-067, pork kidney, resistant Amp, T, broth microdilution, 37°C, 24 h. The protocol: as §1, §2
Assay [5] has as its system S. enterica serovar 4,5,12:i:- H2-072 (foodborne isolate). The experiment in a line: MIC/MBC, broth microdilution and colony count. Particulars: H2-072, pork intestine, resistant Amp, Ctx, C, T, SxT, intermediate Cp, broth microdilution, 37°C, 24 h. The procedure:
as §1, §2

Assay [6] relates to S. enterica serovar 4,5,12:i:- H2-055 (foodborne isolate). Briefly: MIC/MBC, broth microdilution and colony count. Particulars: H2-055, pork liver, resistant Amp, T, broth microdilution, 37°C, 24 h. The protocol:
as §1, §2

For assay [7], the system named is S. enterica serovar 4,5,12:i:- H2-062 (foodborne isolate). The experiment in a line: MIC/MBC, broth microdilution and colony count. Particulars: H2-062, pork intestine, resistant Amp, T, intermediate Cp, broth microdilution, 37°C, 24 h. The procedure:
as §1, §2

Assay [8] has as its system S. enterica serovar 4,5,12:i:- H2-050 (foodborne isolate). The experiment in a line: MIC/MBC, broth microdilution and colony count. Particulars: H2-050, pork heart, resistant Amp, broth microdilution, 37°C, 24 h. The procedure:
as §1, §2

Assay [9] deals with S. enterica serovar 4,5,12:i:- H2-071 (foodborne isolate). Briefly: MIC/MBC, broth microdilution and colony count. Particulars: H2-071, pork heart, resistant Amp, Ctx, C, T, SxT, intermediate Cp, broth microdilution, 37°C, 24 h. The procedure:
as §1, §2

Assay [10] deals with S. enterica serovar 4,5,12:i:- H2-065 (foodborne isolate). The experiment in a line: MIC/MBC, broth microdilution and colony count. Particulars: H2-065, pork liver, resistant Amp, T, broth microdilution, 37°C, 24 h. The protocol:
as §1, §2

Assay [11] deals with S. enterica serovar 4,5,12:i:- H1-027 (clinical isolate). Briefly: MIC/MBC, broth microdilution and colony count. The conditions noted are these: H1-027, stool, resistant Amp, T, broth microdilution, 37°C, 24 h. The protocol:
as §1, §2

Assay [12] concerns S. enterica serovar 4,5,12:i:- H2-047 (foodborne isolate). Briefly: MIC/MBC, broth microdilution and colony count. Particulars: H2-047, pork liver, resistant Amp, intermediate Cp, broth microdilution, 37°C, 24 h. The procedure:
as §1, §2

Assay [13] has as its system S. enterica serovar 4,5,12:i:- H2-082 (foodborne isolate). The experiment in a line: MIC/MBC, broth microdilution and colony count. The conditions noted are these: H2-082, pork intestine, resistant Amp, T, broth microdilution, 37°C, 24 h. The procedure:
as §1, §2

In assay [14] the test system is S. enterica serovar 4,5,12:i:- H2-089 (foodborne isolate). Briefly: MIC/MBC, broth microdilution and colony count. Particulars: H2-089, pork intestine, resistant Amp, broth microdilution, 37°C, 24 h. The procedure: as §1, §2
In assay [15] the test system is S. enterica serovar 4,5,12:i:- H1-025 (clinical isolate). The experiment in a line: MIC/MBC, broth microdilution and colony count. The conditions noted are these: H1-025, urine, resistant Amp, Ctx, C, T, intermediate Cp, NA, SxT, broth microdilution, 37°C, 24 h. The protocol: as §1, §2

Ends that are not written are not given here.

As to KIAKRIWKILRR-NH2 [P7], the MIC in assay [1] is recorded as 7.81 (7.81) μg/ml. The MBC in assay [1] (colony count on MHA) is recorded as 7.81 (7.81) μg/ml.
For the substance “Nisin: authorized food preservative peptide, binds lipid II and forms membrane pores (ITSISLCTPGCKTGALMGCNMKTATCHCSIHVSK; cysteine pairing not given here; also: lantibiotic nisin-A; UniProt P13068 24-57, looked up)”, the MIC in assay [2], in assay [3], in assay [4], in [5], in assay [6] and in assay [7] was greater than 1000 µg/mL each time. In addition, the MIC in [8], in assay [9], in assay [10], in assay [11], in [12] and in [13] was greater than 1000 µg/mL in each case. For the same substance, the MIC in [14], in [15] and in [1] was greater than 1000 µg/mL each time.
